# Data taken from patent publication US10047151B2, “Methods for the treatment of cancer and inflammatory diseases using cereblon as a predictor” (Celgene Corporation, priority 2011, dated 2018).
# Key:
# [1] = test system: NF-κB; experiment: NF-κB-driven luciferase reporter gene assay in DLBCL cells; assay type: cell-based; details: OCI-Ly10 and U2932; 2 day drug treatment
# Method: For the NF-κB-driven luciferase reporter gene assay, cells were transfected with the pGL4.32 [luc2P/NF-κB-RE/Hygro] plasmid (Promega, Madison, Wis.) using Nucleofector kit V and program 013 according to the manufacturer's protocol (Amaxa Biosystems, Gaithersburg, Md.). After 24 hours of transfection, cells were treated with test agents for 2 days and lysates were prepared using the Dual-Glo® Luciferase Assay System (Promega). Luciferase activities of each sample were measured using a TopCount NXT Microplate Scintillation and Luminescence Counter (Packard BioScience).
# To knockdown IRF4, cells were transfected with Silencer® Select siRNA (small interfering RNA, Applied Biosystems) directed against IRF4, CRBN, or Silencer® Select Negative Control siRNAs at a final concentration of 0.2-1 μM using Nucleofector® Kit V for transfection. For IRF4 overexpression, cells were transfected with IRF4- or green fluorescent protein (GFP)-cytomegalovirus (CMV) expression plasmids (OriGene Technologies, Rockville, Md.) for 24 h using the Cell Line Nucleofector kit V as above-mentioned. After 24 hours of transfection, cells were treated with lenalidomide for 2 days before luciferase assay, RT-PCR gene expression analysis and Western blot. […]
# [2] = test system: IRF4; experiment: IRF4 protein level in H929 cells (Western blot); assay type: cell-based
# Description: In H929 cells, the cell cycle arrest in G1 phase by the drugs coincides with a reduction of tumor suppressor, pRb, phosphorylation and the oncogene and myeloma survival factor IRF4.
# [3] = test system: OCI-Ly10; experiment: Apoptosis of DLBCL cells; assay type: cell-based
# Description: In order to define the place of lenalidomide for DLBCL therapy in specific patient populations and to understand the molecular mechanisms of efficacy, a panel of DLBCL cell lines was collected in this study. The DLBCL subtypes of the cell lines were confirmed based on literature information (Lenz G, et al., Proc Natl Acad Sci USA 2008; 105: 13520-5) and molecular analysis, including intracellular NF-κB activity or IRF4 expression, as well as gene expression profiling of key signature genes of activated B cells.
# [4] = test system: pRb; experiment: pRb phosphorylation in H929 cells (Western blot); assay type: cell-based
# [5] = test system: OCI-Ly10 DLBCL cells; experiment: OCI-Ly10 human tumor xenograft model; assay type: in vivo
# Method: . A total of 10×10^6 OCI-Ly10 DLBCL cells in 100% Matrigel (Becton Dickinson, San Jose, Calif.) were injected subcutaneously into the right flank of mice. Mice were monitored 2 or 3 times a week for the appearance of tumors. Once the tumors reached an average size of 100-150 mg, 10 mice in each group were treated with either vehicle (0.5% carboxymethyl cellulose: 0.25% Tween 80 in deionized H2O) or indicated doses of lenalidomide (qd×28, p.o.) or the positive control vincristine (q4d×4, i.v.). Mice were monitored daily for health status as well as tumor growth. Tumors of all mice were measured with a digital caliper and volumes calculated with the following formula: tumor volume (mm^3)=length (mm)×width (mm)^2. Mice were killed when tumor size exceeded 1000 mm^3.
# To confirm the relevance of lenalidomide-mediated inhibition of NF-κB/IRF4 signaling in vivo in ABC-DLBCL, a subcutaneous OCI-Ly10 xenograft model was established. […] Compared with vehicle control group, lenalidomide treatment for 7 days reduced IRF4 expression and BCL-10 cleavage by 15-35% (p<0.05).
# [6] = test system: poly-ubiquitin chains; experiment: Global polyubiquitination by immunofluorescence in H929 cells; assay type: cell-based; details: 1 μM, 30 minutes
# Method: Specific antibodies for poly-ubiquitin chains were used to study the effect of immunomodulatory drugs on global levels of ubiquitination. H929 cells were treated with lenalidomide (1 μM), pomalidomide (1 μM) or proteasome inhibitor MG132. After 30 minutes cells were process for immunofluorescence. Global levels of K63-linked polyubiquitination were quantified by Cellomics.
# [7] = test system: IRF4; experiment: IRF4 protein expression in ABC-DLBCL cells (Western blot); assay type: cell-based
# Method: Cells were treated with test compounds or 0.1% DMSO for indicated times. Following incubation, cells were collected, pelleted with centrifugation, and immediately lysed in 0.1 ml lysis buffer containing 10 mM Tris-HCl pH 8.0, 10 mM EDTA, 150 mM NaCl, 1% NP-40, 0.5% SDS, 1 mM DTT, 1 mM Na3VO4, plus Complete protease inhibitor cocktail (Roche Applied Science, Indianapolis, Ind.), then processed with a Qiashredder™ (Qiagen, Valencia, Calif.) for 1 minute and frozen on dry ice. Samples were diluted with 6×SDS sample buffer and then boiled for 5 min. Approximately 30 μl of this mixture was loaded per lane on a Criterion Precast 4-12% Tris-HCl gel (Bio-Rad, Hercules, Calif.), electrophoresed, and transferred to nitrocellulose membranes (Bio-Rad, Hercules, Calif.). The membranes were blocked for 1 hour at room temperature using blocking buffer (LI-COR Biosciences, Lincoln, Nebr.), then incubated overnight at 4° C. with antibodies against either BCL-10, IRF4, CRBN or β-actin. Membranes were washed and incubated with IRDye Secondary Antibodies (1:30,000) for 1 hour at room temperature. A standard protocol was then followed for signal detection, using the Odyssey® Infrared Imaging System and software (LI-COR Biosciences, Lincoln, Nebr.).
# To understand the molecular mechanism of lenalidomide on ABC-DLBCL cells, the effects of lenalidomide on IRF4 expression in these cells were investigated. […] Lenalidomide-induced decrease of IRF4 expression occurred as early as 1 day of drug treatment, with similar kinetics to that of the inhibitors (zVRPR-fmk and LY-333,531, respectively) of MALT1 and PKCβ, two key enzymes involved in NF-κB activation upon BCR engagement in B cells.
smiles,measurement,setting,value
"Nc1cccc2c1CN(C1CCC(=O)NC1=O)C2=O (centres unmarked) [lenalidomide, 3-(4-amino-1-oxo-1,3-dihydro-isoindol-2-yl)-piperidine-2,6-dione]",inhibition of transcriptional activity of NF-κB,[1],32-56%
same,total level of protein IRF4,[2],decreased
same,apoptosis of sensitive cell lines,[3],induced apoptosis
same,phosphorylation of pRB,[4],decreased
same,tumor size,"[5]; 3-30 mg/kg po, qdX28, p<0.01",significantly decreased tumor size
same,toxicity based upon mouse weight,[5]; throughout study,No pronounced toxicity
same,reduction of IRF4 expression and BCL-10 cleavage compared with vehicle control group,"[5]; treatment for 7 days, p<0.05",15-35%
same,K-63-linked ubiquitination,[6],but not K-63-linked ubiquitination
same,total K48-linked polyubiquitination,[6],decrease
same,IRF4 levels,"[7]; OCI-Ly3 cells, 1-3 day treatments",neither lenalidomide nor the PKCβ inhibitor had any appreciable effect
same,IRF4 protein levels,"[7]; sensitive cell lines U2932 and OCI-Ly10, treatment for 1-3 days",significantly downregulate
